Reference: patent US10828315B2 (Madrigal Pharmaceuticals, Inc., priority 2013, dated 2020)
Blank lines part the entries; values can stand above or below the compound they belong to.

Tests used:
[1] = tested on: human breast cancer cell line BT-474; experiment: Cytotoxicity assay (CellTiter-Glo, 72 h), BT-474; assay type: cell-based; details: BT-474, 72 hours, read-out: Cytotoxicity (IC50, nM) BT-474
[2] = tested on: human urinary bladder cancer cell line RT-112; experiment: Cytotoxicity assay (CellTiter-Glo, 72 h), RT-112; assay type: cell-based; details: RT-112, 72 hours, read-out: Cytotoxicity (IC50, nM) RT-112
HER2 = HER2 degradation assay with BT-474 cell line (Example 12, FACS); assay type: cell-based, human; details: BT-474 cells, overnight
Hsp90α = target: T1, Hsp90α (Homo sapiens, UniProt P07900); experiment: Hsp90α binding assay (fluorescence polarization, FITC-labeled geldanamycin; Example 11); details: read-out: EC50 (Hsp90 binding assay)
T1 construct: purchased BPS Bioscience 50294
Protocol: An Hsp90^α fluorescence assay kit from BPS Bioscience (Cat #50294) containing Hsp90 recombinant enzyme, FITC-labeled geldanamycin, assay buffer and a low binding 384-well plate was used to assay Hsp90^α binding. Dithiothreitol (DTT) (Cat # D0643) and bovine serum albumin (BSA) (Cat # A2153) were obtained from Sigma-Aldrich. Fluorescence polarization was measured using a PHERAstar microplate reader (BMG LABTECH GmbH, Orienberg, Germany.)
The compounds were diluted to 1 mM in DMSO and loaded into a compound dilution plate to make 3-fold dilutions yielding a total of 8 concentrations. […] 5 mL of Hsp90^□ binding solution was prepared having a final concentration of 7 ng/[…]binding^□, 5 nM FITC-labeled geldanamycin, 2 mM DTT and 0.1 mg/mL BSA. 49 μL of binding solution was added to each microplate well, incubated at room temperature for 1 hour, then read using the PHERAstar microplate reader. The high control sample contained no compound plus Hsp90^α; the low control sample contained no compound and no Hsp90^α. […] The IC50 was calculated using GraphPad Prism 4 software.

[3] = Artificial membrane permeability assay (PAMPA); details: same protocol, second table
[4] = tested on: human urinary bladder cancer cell line SW780; experiment: Cytotoxicity assay (CellTiter-Glo, 72 h), SW780; assay type: cell-based; details: SW780, 72 hours, read-out: Cytotoxicity (IC50, nM) SW-780
[5] = tested on: H2AX phosphorylation, HSP70, EGFR, MET; experiment: Pharmacodynamics in CRC (HCT-116) xenograft tumors; assay type: in vivo, mouse; details: for H2AX phosphorylation: 24 hr
[6] = tested on: Hsp90 client proteins (EGFR, MET, CDC2), Hsp70, DNA damage markers; experiment: Pharmacodynamics in SCLC xenograft tumors; assay type: in vivo
[7] = Tissue distribution of ganetespib in mice bearing RERF human NSCLC xenografts; details: ganetespib 50 mg/kg IV
[8] = tested on: human SCLC tumor xenografts; experiment: Antitumor activity in human SCLC tumor xenografts; assay type: in vivo, mice; details: SCLC xenografts; day 46
[9] = tested on: HCT-116 human colorectal xenografts; experiment: Mouse xenograft efficacy in HCT-116 colon cancer model; details: mouse, in vivo
[10] = tested on: HCT-116 human colorectal xenografts; details: female, BALB/cA nude, mouse, in vivo, iv
SK-OV-3 xenografts = experiment: Antitumor activity in SK-OV-3 ovarian cancer xenografts; assay type: in vivo, female Balb/c nude mice; details: SDC-TRAP-0063 200 mg/kg group; irinotecan alone and with ganetespib
Protocol: This model is sensitive to HSP90 inhibition.
However, once the dosing is discontinued all but 200 mg/kg of SDC-TRAP-0063 dose group maintained tumor growth inhibition for a prolonged period of time.

[11] = mouse, plasma, 1 h, 10 µM
[12] = SCLC xenograft tumors, 24 hrs after drug exposure

SMILES: CCNC(=O)c1nnc(-c2cc(C(C)C)c(O)cc2O)n1-c1ccc(OC2CCN(c3cnc(C(=O)N[C@H]4C[C@H](O[C@H]5C[C@](O)(C(=O)CO)Cc6c(O)c7c(c(O)c65)C(=O)c5c(OC)cccc5C7=O)O[C@@H](C)[C@H]4O)cn3)CC2)cc1 [SDC-TRAP-0200, 5-(4-(4-(3-(2,4-dihydroxy-5-isopropylphenyl)-5-(ethylcarbamoyl)-4H-1,2,4-triazol-4-yl)phenoxy)piperidin-1-yl)-N-((2S,3S,4S,6R)-3-hydroxy-2-methyl-6-(((1S,3S)-3,5,12-trihydroxy-3-(2-hydroxyacetyl)-10-methoxy-6,11-dioxo-1,2,3,4,6,11-hexahydrotetracen-1-yl)oxy)tetrahydro-2H-pyran-4-yl)pyrazine-2-carboxamide]
- IC50 [1]: 32 nM
- IC50 [2]: 16 nM
- IC50 (HER2): > 10000 nM
- EC50 (Hsp90α): 253 nM
- Mass Retention [3]: 10.6%
- IC50 [4]: 651 nM

SMILES: CCNC(=O)c1nnc(-c2cc(C(C)C)c(O)cc2O)n1-c1ccc(Oc2ccc(C(=O)N[C@H]3C[C@H](O[C@H]4C[C@](O)(C(=O)CO)Cc5c(O)c6c(c(O)c54)C(=O)c4c(OC)cccc4C6=O)O[C@@H](C)[C@H]3O)cc2)cc1 [SDC-TRAP-0199, 5-(2,4-dihydroxy-5-isopropylphenyl)-N-ethyl-4-(4-(4-(((2S,3 S,4S,6R)-3-hydroxy-2-methyl-6-(((1S,3S)-3,5,12-trihydroxy-3-(2-hydroxyacetyl)-10-methoxy-6,11-dioxo-1,2,3,4,6,11-hexahydrotetracen-1-yl)oxy)tetrahydro-2H-pyran-4-yl)carbamoyl)phenoxy)phenyl)-4H-1,2,4-triazole-3-carboxamide]
- IC50 [1]: 29 nM
- IC50 [2]: 29 nM
- IC50 (HER2): > 10000 nM
- EC50 (Hsp90α): 136 nM
- IC50 [4]: 2300 nM

- plasma concentration ([7]; DRD, 24 hr): <LLOQ
- mean concentration in plasma relative to RBC ([7]; 5 min): about 10 times
SMILES: CC(C)c1cc(-c2n[nH]c(=O)n2-c2ccc3c(ccn3C)c2)c(O)cc1O [ganetespib, reference compound]
- H2AX phosphorylation ([5]; HCT-116 tumors): induces H2AX phosphorylation
- HSP70 and Hsp90 client protein (EGFR, MET) expression ([5]; HCT-116 tumors, 24 hr exposure): induces HSP70 expression and reduces the level of EGFR and MET compared to vehicle
- Hsp90 client proteins (EGFR, MET, CDC2) and Hsp70 expression [6, 12]: Hsp90 clients EGFR, MET and CDC2 are diminished
- markers for DNA damage (acetyl-histone H3, p53, p-H2AX) [6, 12]: increases p-H2AX but has negligible effects on p53 and histone H3
- persistence in tumor versus plasma and other tissues ([7]; up to 24 hr): persist longer in tumor than in plasma or any other tissues studied

SMILES: CCc1c2c(nc3ccc(OC(=O)N4CCC(N5CCCCC5)CC4)cc13)-c1cc3c(c(=O)n1C2)COC(=O)[C@]3(O)CC [irinotecan, reference compound]
- H2AX phosphorylation ([5]; HCT-116 tumors): stimulate H2AX phosphorylation at 24 hr
- kinetics of H2AX phosphorylation ([5]; HCT-116 xenograft tumors): maximally induced at 4 hr and stable at 24 hr
- mice found dead [8]: 1/8
- antitumor activity in HCT-116 xenografts (FIG. 23) [9]: significantly inhibited the growth of HCT-116 human colorectal xenografts
- kinetics of acetyl-histone H3 induction ([6]; SCLC xenograft tumors, 24, 72 and 96 hrs): maximal induction of acetyl-histone H3 by 24 hr
- animal death during the treatment [10]: 20-30%
- antitumor activity in SK-OV-3 xenografts (FIG. 25) (SK-OV-3 xenografts): statistically significant inhibitory impact on the growth of SK-OV-3 xenografts
- % Remaining (1 h) [11]: 32.5%
